In paper PMC8897968 (European Journal of Medicinal Chemistry, 2022):
pEC50, pIC50, pKd: −log10 of the molar value.

Key:
rabies virus CVS strain = assay: microbe, parasite or virus in culture; format: cell-based; conditions: for pIC50: Lyssavirus rabies, read-out: IC50 values (anti-rabies, as worded in the text)
BSR cells = assay: Cytotoxicity in BSR cells; conditions: Cytotoxic concentration required to inhibit BSR cell growth by 50%
rabies virus G protein = rabies virus G protein (Rabies virus, UniProt O92284); assay: biochemical; format: binding
Kunming mice = assay: Acute toxicity test in Kunming mice; conditions: oral, single dose, monitored for 7 days
[1] = Cytotoxicity in Huh 7 cells; conditions: human, Huh 7 cells
Huh 7 cells = assay: Cytotoxicity in Huh 7 cells; conditions: Cytotoxic concentration required to inhibit Huh 7 cell growth by 50%
pSARS-CoV-2 = format: cell-based, SARS-CoV-2

Sequence of rabies virus G protein (O92284 20-459 limits assumed): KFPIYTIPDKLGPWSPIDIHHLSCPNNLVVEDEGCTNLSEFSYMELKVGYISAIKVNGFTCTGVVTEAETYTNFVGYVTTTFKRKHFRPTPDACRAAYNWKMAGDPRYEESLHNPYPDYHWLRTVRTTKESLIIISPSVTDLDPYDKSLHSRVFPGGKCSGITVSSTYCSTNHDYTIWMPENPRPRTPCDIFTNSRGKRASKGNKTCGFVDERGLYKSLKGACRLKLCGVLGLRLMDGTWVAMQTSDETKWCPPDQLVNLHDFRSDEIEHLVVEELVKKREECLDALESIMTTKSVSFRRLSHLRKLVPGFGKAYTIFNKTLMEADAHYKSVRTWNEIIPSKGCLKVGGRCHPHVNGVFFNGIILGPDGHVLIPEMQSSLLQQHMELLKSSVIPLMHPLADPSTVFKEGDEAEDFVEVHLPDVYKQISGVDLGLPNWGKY

CC(C)/N=c1\cc2n(-c3ccccc3)c3ccccc3nc-2cc1NCc1ccc(F)cc1 [Compound 7q, 2-p-Fluorobenzylamino-3-isopropylimino-5-phenyl-3,5-dihydrophenazine] gave a pIC50 (rabies virus CVS strain) of 5.72.
Work on CC(C)/N=c1\cc2n(-c3ccc(Cl)cc3)c3ccccc3nc-2cc1Nc1ccc(OC(F)(F)F)cc1 [Compound 7i, 2-p-Trifluoromethoxyanilino-3-isopropylimino-5-p-chlorophenyl-3,5-dihydro phenazine] yielded a pIC50 (rabies virus CVS strain) of 5.75.
With CC(C)/N=c1\cc2n(-c3ccccc3)c3ccccc3nc-2cc1Nc1ccc(Cl)cc1 [Compound 7l] the pIC50 (rabies virus CVS strain) was 5.85.
CC(C)/N=c1\cc2n(-c3ccccc3)c3ccccc3nc-2cc1NCc1ccccc1 [Compound 7p, 2-Benzylamino-3-isopropylimino-5-phenyl-3,5-dihydrophenazine] gave a pIC50 (rabies virus CVS strain) of 5.85.
“2-Benzyl-3-imino-5-phenyl-3,5-dihydrophenazine [Compound 6l]” showed a CC50 (BSR cells) of 35400 nM and a pEC50 (rabies virus CVS strain) of 4.45.
Work on CC(C)/N=c1\cc2n(-c3ccc(Cl)cc3)c3ccccc3nc-2cc1NCc1ccc(Cl)cc1 [Compound 7k, 2-p-Chlorobenzylamino-3-isopropylimino-5-p-chlorophenyl-3,5-dihydrophena zine] yielded a pIC50 (rabies virus CVS strain) of 6.12.
For CC(C)/N=c1\cc2n(-c3ccc(Cl)cc3)c3ccccc3nc-2cc1Nc1ccc(Cl)cc1 [Compound 1, clofazimine, reference compound], the pKd (rabies virus G protein) was 6.14.
With COc1ccc(-n2c3c/c(=N\C(C)C)c(Nc4cccc(F)c4)cc-3nc3ccccc32)cn1 [Compound 15f, 2-m-Fluoroanilino-3-isopropylimino-5-(6-methoxy-3-pyridinyl)-3,5-dihydro phenazine] the “median lethal dose (LD50)” value (Kunming mice) was “over 800 mg•kg^−1”, the pIC50 (rabies virus CVS strain) was 5.84 and the pKd (rabies virus G protein) was 6.55.
Compound CC(C)/N=c1\cc2n(-c3ccc(F)cc3)c3ccccc3nc-2cc1Nc1ccc(F)cc1 [Compound 15b] has a CC50 at 24 h [1] greater than 200000 nM.
In the case of COc1ccc(-n2c3c/c(=N\C(C)C)c(Nc4ccc(F)cc4)cc-3nc3ccccc32)cn1 [Compound 15g, 2-p-Fluoroanilino-3-isopropylimino-5-(6-methoxy-3-pyridinyl)-3,5-dihydro phenazine], the “median lethal dose (LD50)” value (Kunming mice) was “over 800 mg•kg^−1” and the pIC50 (rabies virus CVS strain) was 5.85.
In the case of “2-p-fluoroanilino-3-isopropylimino-5-p-chlorophenyl-3,5-dihydrophenazine [Compound 15a]”, the CC50 (BSR cells) was greater than 200000 nM, the CC50 (Huh 7 cells) was 17000 nM and the pEC50 (rabies virus CVS strain) was 5.40. It also gave a pEC50 (pSARS-CoV-2) of 4.53.
